The text below walks through data of paper PMC10205807, “Cross-species comparison in nonclinical pharmacokinetics of lenvatinib by a simple HPLC with ultraviolet detection” (Scientific Reports, 2023).

One data set relates to plasma protein. As to the kind of experiment: in vitro plasma protein binding, dogs. In kind it is in vitro ADME.
Data set [1] is described as follows: Stability of lenvatinib in monkey plasma and processed samples. The following applies: monkey plasma; for Freeze/thaw stability, mean percentage bias from the theoretical values: 3 cycles; for Frozen stability, mean percentage bias from the theoretical values: below − 15 °C, 6 weeks. Type of data set: physicochemical, monkeys. On the procedure: (§1) Calibration samples and QC samples for the reproducibility assessment were prepared by spiking 0.05 mL of the working standard solutions to blank plasma (0.05 mL), and QC samples for the stability assessment were prepared by fortifying 0.05 mL of the solution to 1.5 mL of bank plasma. Lenvatinib concentrations in plasma were 0.005, 0.01, 0.03, 0.1, 0.3, 1, 3, 10, 30, and 100 μg/mL for the calibration samples, and were 0.005, 0.01, 1, and 100 μg/mL for the QC samples for reproducibility assessment. Lenvatinib concentrations of QC samples for the stability assessment were 0.01, 1, and 80 μg/mL.
(§2) The developed method for the determination of lenvatinib concentrations in plasma was validated and the following validation parameters including linearity, selectivity, intra- and inter-batch reproducibility, extraction recovery, and stability were evaluated in accordance with the bioanalytical guidelines by United States Food and Drug Administration (US-FDA)[7]. The peak height ratios of lenvatinib to the IS of calibration samples were plotted against the corresponding nominal concentrations of lenvatinib. The calibration curve was prepared by the least square method with 1/(concentration)^2 as the weighting factor. In the linearity assessment, accuracy of each calibration sample was determined to ensure that relative error (RE) at each concentration was within ± 15% (within ± 20% at the LLOQ). In the selectivity assessment, peak heights at the retention times of lenvatinib and the IS should be within 20% and 5% of those of the LLOQ for lenvatinib and the IS, respectively in blank plasma from six individuals. Intra-batch accuracy and precision were evaluated using QC samples at the four concentrations, LLOQ, low QC (LQC), mid QC (MQC), and ULOQ. Six replicates per concentration were assayed to calculate RE and relative standard deviation (RSD). Inter-batch accuracy and precision were evaluated by testing a single sample at each concentration across five batches (n = 5 in total). The acceptance criteria for RE and RSD in the intra- and inter-batch reproducibility should be within ± 15% and 15%, respectively, except at the LLOQ that was within ± 20% and 20%, respectively, was allowed. Extraction recoveries of lenvatinib and the IS from plasma samples of the four species were evaluated. The recoveries of lenvatinib at the low, mid, and high QC levels (triplicates per concentration), and that of the IS (0.5 μg/mL) were determined. Peak heights of lenvatinib after extraction from plasma samples were compared to those of the neat solution with the same concentrations. Stability of lenvatinib in plasma and processed samples was assessed at the low and high QC levels. Lenvatinib concentrations in samples after storage were compared to the theoretical concentrations and RE values were calculated. The RE values should be within ± 15% when considered stable. Freeze–thaw stability in plasma was evaluated up to three freeze–thaw cycles and frozen stability in plasma was evaluated at − 15 °C or below for 4 weeks (mice, rats, and dogs) or 6 weeks (monkeys). Stability in processed samples was assessed at 4 °C for 7 days. Stability of lenvatinib in the standard solutions was evaluated for the stock (100 μg/mL) and the working solution (5 ng/mL). The stability of the IS solution (0.5 μg/mL) was also assessed. The standard solutions were stored at 5 °C for 4 weeks or 6 h at ambient temperature. The peak height of the stored solutions was compared to that of the freshly prepared solution. […]

A short description of data set [2]: Stability of lenvatinib in mice plasma and processed samples. The following applies: for Frozen stability, mean percentage bias from the theoretical values: below − 15 °C, 4 weeks. Type of data set: physicochemical. Here is the method:
as §1
as §2, with “In the selectivity assessment, peak heights at the retention times of lenvatinib and the IS should be within 20% and 5% of those of the LLOQ for lenvatinib and the IS, respectively in blank plasma from six individuals.” left out, “Six replicates per concentration were assayed to calculate RE and relative standard deviation (RSD).” left out, “The acceptance criteria for RE and RSD in the intra- and inter-batch reproducibility should be within ± 15% and 15%, respectively, except at the LLOQ that was within ± 20% and 20%, respectively, was allowed.” left out, “Peak heights of lenvatinib after extraction from plasma samples were compared to those of the neat solution with the same concentrations.” left out, “The RE values should be within ± 15% when considered stable.” left out, “assessed.” for “assessed. The standard solutions were stored at 5 °C for 4 weeks or 6 h at ambient temperature. The peak height of the stored solutions was compared to that of the freshly prepared solution.”

By fraction unbound is commonly meant free concentration divided by total concentration. `COc1cc2nccc(Oc3ccc(NC(=O)NC4CC4)c(Cl)c3)c2cc1C(N)=O` [lenvatinib, Lenvatinib] gave a fraction unbound at 0.3 μg/mL with plasma protein (dog plasma, 0.3 μg/mL) of 0.084. For the same compound, the fraction unbound in the data set with plasma protein (dog, plasma, dogs, 0.3–30 μg/mL, read-out: average fp (unbound fraction in plasma)) amounted to 0.089. The “Freeze/thaw stability, mean percentage bias from the theoretical values” in data set [1] (HQC 80 μg/mL) came out at 1.6%; in data set [1] (MQC 1 μg/mL), 2.3%; in data set [2] (mice plasma, 3 cycles, HQC 80 μg/mL) it was 0.8%. Moreover, the “Frozen stability, mean percentage bias from the theoretical values” in data set [1] (HQC 80 μg/mL) is 7.0%; in data set [1] (LQC 0.01 μg/mL) it was 2.0%; in data set [1] (MQC 1 μg/mL), 4.2%; in data set [2] (mice plasma, LQC 0.01 μg/mL) it was 0.0%; in data set [2] (mice plasma, MQC 1 μg/mL), 1.0%. In data set [2] (processed mice plasma samples, 4 °C, 7 days, HQC 80 μg/mL), the “Processed sample stability, mean percentage bias from the theoretical values” was determined as 0.3%.
